Test results taken from patent publication US7541188B2, “Skin substitutes and uses thereof” (Stratatech Corporation, priority 2001, dated 2009).
Read-outs that look alike come from different tables or passages of the source.

Legend:
[1] = tested on: in vitro skin equivalent cultures; details: substance added to in vitro cultures, cited from earlier work
[2] = tested on: skin equivalents; details: irritant-treated skin equivalents; cited from earlier work
[3] = tested on: tracheobronchial epithelial cells; details: cited from earlier work
[4] = tested on: NIKS organotypic cultures; experiment: IL-1α secretion by NIKS organotypic cultures (Quantikine IL-1α ELISA of media); type: cell-based, human; details: 0.1% SDS applied topically, 24 hr, 37° C.
Protocol: Solutions of SDS (0.1%, 0.2%, and 0.5%) were topically applied to air-exposed NIKS organotypic cultures and incubated for 24 hr at 37° C. After 24 hr, the media underneath the cultures was assayed for IL-1α protein using a Quantikine IL-1α ELISA kit (R&D Systems, Minneapolis, Minn.) and cultures were incubated with MTS reagent (Promega Corp., Madison, Wis.) to determine cell viability. Media from untreated cultures contained 25 pg/ml IL-1α, whereas the concentration of IL-1α in cultures treated with 0.1%, 0.2% or 0.5% SDS was 290, 375 and 275 pg/ml respectively.

[5] = tested on: in vitro skin equivalent cultures; details: substance added to in vitro cultures; cited from earlier work

Estrogen
Barrier Function [1]: Accelerates

C=C1/C(=C\C=C2/CCC[C@]3(C)[C@@H]([C@H](C)/C=C/[C@@H](O)C4CC4)CC[C@@H]23)C[C@@H](O)C[C@@H]1O [calcipotriol]
expression and secretion of the pro-inflammatory cytokines IL-1α and IL-8 [2]: induce expression and secretion

Vitamin D
Barrier Function [1]: Improved/No | Barrier Function ([1]; listed as vitamin D): improvements in some studies

CC1=C(/C=C/C(C)=C/C=C/C(C)=C/C(=O)O)C(C)(C)CCC1 [trans-retinoic acid]
expression and secretion of the pro-inflammatory cytokines IL-1α and IL-8 [2]: induce expression and secretion | induction of reporter gene containing IL-8 promoter sequences between −1472 and +19 [3]: induced

CCCCCCCCCCCCOS(=O)(=O)[O-].[Na+] [SDS]
concentration of IL-1α in media [4]: 290 pg/mL | expression and secretion of the pro-inflammatory cytokines IL-1α and IL-8 [2]: induce expression and secretion

EGF: epidermal growth factor (NSDSECPLSHDGYCLHDGVCMYIEALDKYACNCVVGYIGERCQYRDLKWWELR; Epidermal growth factor; UniProt P01133 971-1023, looked up)
Lipid Composition [5]: High
